According to EPA's ToxValDB 9.5 (doi:10.2903/j.efsa.2009.203r):
≈ marks a conversion by molar mass, not a printed value.

Tests used:
[1] = system: Rattus norvegicus; details: for LD50: acute, mortality
[2] = system: Anas platyrhynchos; details: short-term; oral; feed; mortality
[3] = system: Canidae; details: oral, Dog Other, histopathology: nonneoplastic
[4] = system: Colinus virginianus; details: acute, oral, mortality
[5] = system: Oncorhynchus mykiss; details: acute; duration: 96 hours; mortality

`CNC(=S)[S-].[Na+]` [Metam-sodium] showed an LD50 ([1]; oral) of 896 mg/kg-day, an NOAEL ([1]; chronic, duration: 2 years, histopathology: nonneoplastic) of 1.5 mg/kg-day and an NOAEL ([1]; developmental, oral, gavage, development) of 5 mg/kg-day. It also gave an LC50 [2] greater than 324 mg/kg-day, an NOAEL ([3]; chronic, duration: 1 years, capsule) of 0.1 mg/kg-day and an LC50 ([4]; diet) greater than 448 mg/kg-day. For the same compound, the LD50 [4] was 211 mg/kg-day.

`CN=C=S` [Methyl isothiocyanate] showed an LD50 ([1]; oral) of 147 mg/kg-day, an NOAEL ([1]; chronic, duration: 104 weeks, oral, drinking water, histopathology: nonneoplastic) of 0.44 mg/kg-day and an NOAEL ([1]; reproduction developmental) of 3 mg/kg-day. For the same compound, the NOAEL ([3]; subchronic, duration: 90 days, gavage) was 0.4 mg/kg-day and the LC50 [5] was 0.0531 mg/L (≈ 0.726 µM).
